Laboratory results taken from patent US20260364184A1, “COMPOUND BASED ON OXOISOINDOLINYL-SUBSTITUTED TETRAHYDROPYRIMIDINE-DIONE AND USE THEREOF” (GLUETACS THERAPEUTICS (SHANGHAI) CO., LTD., priority 2023, published 2026).
Where two headings read alike, the source gives them in different places.

How the values were obtained:
[1] = tested on: Human lung cancer cell line (H292); assay: Inhibition of H292 cell proliferation (CellTiter luminescent viability); type: cell-based; details: 96 hours; for inhibition at 0.01 µM: H292, 10 nM, read-out: Inhibition Rate at 10 nM (%); for inhibition at 0.5 µM: H292, 500 nM, read-out: Inhibition Rate at 500 nM (%)
Protocol: (§1) The tumor cells used herein were cultured in a cell culture medium listed in table 3 at 37 °C in an incubator with 5% CO2. Prior to experimentation, all cell lines used were correctly identified by STR profiling, and tested negative for mycoplasma contamination using a mycoplasma detection kit through routine screenings.
(§2) The IC50 values of the compounds of the present disclosure (including the compounds in Table 1, Table 2, and Examples 1-468) were determined using the CellTiter-Meiluncell Luminescent Cell Viability Assay Kit from Dalian Meilun Biotech Co., Ltd. The detailed procedure is as follows: Tumor cells were seeded in 96-well cell culture plates at the densities specified in Table 4. On the following day, the test compounds of the present disclosure were subjected to serial dilution. The dilution can be performed according to one of the following two methods: • (1) The first dilution method: The test compounds of the present disclosure (including the compounds in Table 1, Table 2, and Examples 1-468) were subjected to 5-fold serial dilutions starting from a highest concentration of 2000 μM, resulting in a total of 9 concentrations from high to low (2000, 400, 80, 16, 3.2, 0.64, 0.128, 0.0256, 0.00512 μM). Subsequently, 0.5 μL of the test compound dilution was transferred into the 96-well plate containing the cells, with each well containing 100 μL of cell culture medium. […] Into the 96-well plate, the diluted test compounds and corresponding detection reagents were added, resulting in final test compound concentrations of 500 nM and 10 nM, respectively. The experimental procedure is described below using the diluted 2 μM test compound as an example.
(§3) 0.5 μL of the aforementioned diluted compound of the present disclosure (including the compounds in Table 1, Table 2, and Examples 1-468) was added to the seeded cells in 100 μL of medium, yielding a final test compound concentration of 10 nM. After the cells were treated with the compounds of the present disclosure for a specified period, the cell viability assay reagent was added to the culture medium according to the kit's instructions to determine cell viability. […] All controls were treated using the same procedure as the compounds of the present disclosure. The growth inhibition curves for the compounds of the present disclosure were plotted using Prism GraphPad software, and the IC50 values were calculated therefrom.

[2] = tested on: Human myeloid monocytic leukemia cell line (MV-4-11); assay: Inhibition of MV-4-11 cell proliferation (CellTiter luminescent viability); type: cell-based; details: Homo sapiens, MV4-11, 96 hours; for inhibition at 0.01 µM: MV-4-11, 10 nM, read-out: Inhibition Rate at 10 nM (%); for inhibition at 0.5 µM: MV-4-11, 500 nM, read-out: Inhibition Rate at 500 nM (%)
How it was run: (§4)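 IC50 is fitted from luminescent viability (CellTiter-Meiluncell) curves. Nine-point, 5-fold dilution series (top stock 2000 μM) are added at 0.5 μL per 100 μL medium to cells plated the day before, with growth at 37 °C and 5% CO2.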

[3] = tested on: Human Multiple myeloma cell line (MM.1S); assay: Inhibition of MM.1S cell proliferation (CellTiter luminescent viability); type: cell-based; details: Homo sapiens, MM1.S, Table IJ1, Tau inhibitor-based, 96 hours
How it was run: as §4

[4] = tested on: Human diffuse large B-cell lymphoma cell line (TMD8); assay: Inhibition of TMD8 cell proliferation (CellTiter luminescent viability); type: cell-based; details: Homo sapiens, TMD8, 96 h, Table IJ3, Tau inhibitor-based
Protocol: as §1, §2, §3

[5] = target: T1, human Cereblon WT GST-tagged protein (CRBN) (Homo sapiens, UniProt Q96SW2); assay: CRBN binding by HTRF (Cereblon binding kit)
T1 construct: purchased CISBIO 64BDCRBNPEH
Protocol: The CEREBLON BINDING kits (specification: 10,000 tests; product number: Catalog #64BDCRBNPEH; CISBIO company) was used to determine the CRBN binding ability of the compounds to be tested through a HTRF method (homogeneous time-resolved fluorescence). The specific methods are as follows: • 1. According to the instructions of the CEREBLON BINDING KITS, serial dilutions were performed for the test compounds of the present disclosure (including the compounds in Table 1, Table 2, and Examples 1-468) and for lenalidomide. Specifically, diluent #9 (1×) solution was used as the diluent, and multiple concentration gradients were set. The dilution operation can be performed according to one of the following two methods: • (1) The first dilution method: The test compounds of the present disclosure (including the compounds in Table 1, Table 2, and Examples 1-468) were subjected to 5-fold serial dilutions starting from a highest concentration of 40 μM, resulting in a total of 7 concentrations from high to low (40, 8, 1.6, 0.32, 0.064, 0.0128, 0.00256 μM). Subsequently, the diluted test compounds and corresponding detection reagents were added to each well of a 96-well plate, resulting in final test compound concentrations of 10, 2, 0.4, 0.08, 0.016, 0.0032, and 0.00064 μM, respectively. • (2) As an alternative, a second dilution method can be used: The test compounds of the present disclosure (including the compounds in Table 1, Table 2, and Examples 1-468) were subjected to 4-fold gradient dilutions starting from a highest concentration of 8 μM, resulting in 2 concentrations (8 μM, 2 μM). Into the 96-well plate, the diluted test compounds and corresponding detection reagents were added, resulting in final test compound concentrations of 2 μM and 0.5 μM, respectively. The experimental procedure is described below using the diluted 8 μM test compound and lenalidomide solutions as examples. • 2. 2.5 μL of the above 8 μM of the tested compounds and lenalidomide solution, as well as the same volume of diluent #9 (1×) solution (solvent control group, Std0) were added to each well of a 96-well plate, respectively. Then, 2.5 μL of human Cereblon WT GST-tagged protein solution was added to each well. Finally, 5 μL of the thoroughly mixed Thalidomide-Re reagent and GST Eu antibody working solution were added to each of the aforementioned wells. The final concentration of the tested compounds and lenalidomide in each well was 2 μM. • 3. The blank control wells were sequentially added with 2.5 μL of diluent #9 (1×) solution, 2.5 μL of PROTAC binding buffer, and 5 μL of thoroughly mixed Thalidomide-Re reagent and GST Eu antibody working solution. • 4. After sealing and incubating the solutions in the aforementioned wells at room temperature for 3 hours, the absorbance values at emission wavelengths of 620 nm and 665 nm were detected by the HTRF method using a Spark microplate reader (V3.1 SP1).
The corresponding CRBN binding inhibition rate was calculated using the following method:
Rcompound=OD 665 nmcompound/OD 620 nmcompound−OD 665 nmcontrol/OD 620 nmcontrol
RStd0=OD 665 nmStd0/OD 620 nmStd0−OD 665 nmcontrol/OD 620 nmcontrol inhibition rate (%)=(1−Rcompound/RStd0)*100
Note: OD 665 nmcompound is the absorbance value of each well of the compounds to be tested of the present disclosure at an emission wavelength of 665 nm. OD 620 nmcompound is the absorbance value of each well of the compounds to be tested of the present disclosure at an emission wavelength of 620 nm. OD 665 nmcontrol is the absorbance value of the blank control well at an emission wavelength of 665 nm. OD 620 nmcontrol is the absorbance value of the blank control well at an emission wavelength of 620 nm. OD 665 nmStd0 is the absorbance value of the solvent control well at an emission wavelength of 665 nm. OD 620 nmStd0 is the absorbance value of the solvent control well at an emission wavelength of 620 nm.

[6] = NCI-H292, Table IM1, CDK9 inhibitor-based
[7] = Table IE3, CDK4/6 inhibitor-based
[8] = NCI-H292, Table IE2, CDK4/6 inhibitor-based

T1 sequence (Q96SW2 whole entry): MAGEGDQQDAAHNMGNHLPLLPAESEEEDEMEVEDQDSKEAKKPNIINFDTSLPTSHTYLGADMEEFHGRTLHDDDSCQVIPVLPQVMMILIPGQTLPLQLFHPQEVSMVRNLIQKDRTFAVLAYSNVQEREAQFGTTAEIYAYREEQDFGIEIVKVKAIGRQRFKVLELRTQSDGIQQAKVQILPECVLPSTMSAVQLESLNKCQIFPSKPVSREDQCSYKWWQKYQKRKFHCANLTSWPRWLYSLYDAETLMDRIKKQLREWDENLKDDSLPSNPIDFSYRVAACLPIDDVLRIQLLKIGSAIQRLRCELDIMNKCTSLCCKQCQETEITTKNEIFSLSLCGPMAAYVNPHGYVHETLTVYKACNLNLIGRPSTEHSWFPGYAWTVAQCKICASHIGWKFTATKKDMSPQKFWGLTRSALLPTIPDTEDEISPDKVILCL

| Structure (SMILES) | inhibition at 0.01 µM [1, 6] [%] | inhibition at 0.5 µM [1, 6] [%] | inhibition at 0.01 µM [2, 7] [%] | inhibition at 0.5 µM [2, 7] [%] | inhibition at 0.01 µM [1, 8] [%] | inhibition at 0.5 µM [1, 8] [%] | further results |
| --- | --- | --- | --- | --- | --- | --- | --- |
| Cn1ncc(-c2nc(NC3CCN(CC4CCN(c5ccc6c(c5)C(=O)N(N5CCC(=O)NC5=O)C6=O)CC4)CC3)ncc2Cl)c1CC1CC1 [GT-08346, 5-(4-((4-((5-chloro-4-(5-(cyclopropylmethyl)-1-methyl-1H-pyrazol-4-yl)pyrimidin-2-yl)amino)piperidin-1-yl)methyl)piperidin-1-yl)-2-(2,4-dioxotetrahydropyrimidin-1(2H)-yl)isoindoline-1,3-dione] | 0 to 5 | 50 to 60 |  |  |  |  |  |
| CC(=O)c1c(C)c2cnc(Nc3ccc(N4CCC(N5CCN(Cc6ccc7c(c6)C(=O)N(N6CCC(=O)NC6=O)C7=O)CC5)CC4)cn3)nc2n(C2CCCC2)c1=O [GT-06583, 5-((4-(1-(6-((6-acetyl-8-cyclopentyl-5-methyl-7-oxo-7,8-dihydropyrido[2,3-d]pyrimidin-2-yl)amino)pyridin-3-yl)piperidin-4-yl)piperazin-1-yl)methyl)-2-(2,4-dioxotetrahydropyrimidin-1(2H)-yl)isoindoline-1,3-dione] |  |  | 40 to 60 | 40 to 60 | 35 to 40 | 40 to 60 |  |
| N#CC1(CNc2cccc(-c3cc(NC4CCN(CC5CCN(c6cccc7c6C(=O)N(N6CCC(=O)NC6=O)C7=O)CC5)CC4)ncc3Cl)n2)CCOCC1 [GT-08349, 4-(((5′-chloro-2′-((1-((1-(2-(2,4-dioxotetrahydropyrimidin-1(2H)-yl)-1,3-dioxoisoindolin-4-yl)piperidin-4-yl)methyl)piperidin-4-yl)amino)-[2,4′-bipyridin]-6-yl)amino)methyl)tetrahydro-2H-pyran-4-carbonitrile] | 15 to 20 | 20 to 30 |  |  |  |  |  |
| CN(C)C(=O)c1cc2cnc(Nc3ccc(N4CCN(Cc5ccc6c(c5)CN(N5CCC(=O)NC5=O)C6=O)CC4)cn3)nc2n1C1CCCC1 [GT-06335, 7-cyclopentyl-2-((5-(4-((2-(2,4-dioxotetrahydropyrimidin-1(2H)-yl)-1-oxoisoindolin-5-yl)methyl)piperazin-1-yl)pyridin-2-yl)amino)-N,N-dimethyl-7H-pyrrolo[2,3-d]pyrimidine-6-carboxamide] |  |  | 10 to 15 | 40 to 60 | 35 to 40 | 30 to 35 |  |
| N#CC1(CNc2cccc(-c3cc(NC4CCN(CC5CCN(c6ccc7c(c6)C(=O)N(N6CCC(=O)NC6=O)C7=O)CC5)CC4)ncc3Cl)n2)CCOCC1 [GT-08348, 4-(((5′-chloro-2′-((1-((1-(2-(2,4-dioxotetrahydropyrimidin-1(2H)-yl)-1,3-dioxoisoindolin-5-yl)piperidin-4-yl)methyl)piperidin-4-yl)amino)-[2,4′-bipyridin]-6-yl)amino)methyl)tetrahydro-2H-pyran-4-carbonitrile] | -5 to 0 | 30 to 40 |  |  |  |  |  |
| Cn1c2ccncc2c2ccc(-c3cnc(N4CCN(Cc5ccc6c(c5)CN(N5CCC(=O)NC5=O)C6=O)CC4)c(C(F)(F)F)c3)cc21 [GT-08539, 1-(5-((4-(5-(5-methyl-5H-pyrido[4,3-b]indol-7-yl)-3-(trifluoromethyl)pyridin-2-yl)piperazin-1-yl)methyl)-1-oxoisoindolin-2-yl)dihydropyrimidine-2,4 (1H,3H)-dione] |  |  |  |  |  |  | inhibition at 0.01 µM ([3]; 10 nM, read-out: Inhibition Rate at 10 nM (%)): 20 to 30%; inhibition at 0.5 µM ([3]; 500 nM, read-out: Inhibition Rate at 500 nM (%)): 60 to 70%; inhibition at 0.01 µM ([2]; Table IJ2, Tau inhibitor-based): 30 to 40%; inhibition at 0.5 µM ([2]; Table IJ2, Tau inhibitor-based): 50 to 60%; inhibition at 0.01 µM ([4]; TMD8, 10 nM, read-out: Inhibition Rate at 10 nM (%)): 20 to 30%; inhibition at 0.5 µM ([4]; TMD8, 500 nM, read-out: Inhibition Rate at 500 nM (%)): 60 to 70%; inhibition at 0.5 µM ([5]; 0.5 μM, read-out: Inhibition Rate at 0.5 μM (%)): 20 to 30%; inhibition at 2 µM ([5]; 2 μM, read-out: Inhibition Rate at 2 μM (%)): 60 to 80% |
| CN(C)C(=O)c1cc2cnc(Nc3ccc(N4CCC(CN5CCN(c6cccc7c6C(=O)N(N6CCC(=O)NC6=O)C7=O)CC5)CC4)cn3)nc2n1C1CCCC1 [GT-05202, 7-cyclopentyl-2-((5-(4-((4-(2-(2,4-dioxotetrahydropyrimidin-1(2H)-yl)-1,3-dioxoisoindolin-4-yl)piperazin-1-yl)methyl)piperidin-1-yl)pyridin-2-yl)amino)-N,N-dimethyl-7H-pyrrolo[2,3-d]pyrimidine-6-carboxamide] |  |  | 15 to 20 | 40 to 60 | 35 to 40 | 35 to 40 |  |
